Measurements as given in US20070060551A1, “Methods of using isothiazole derivatives to treat cancer or inflammation” (QLT, Inc., priority 2002, published 2007).

What was measured:
PTPN12 = target: T1, PTPN12 (Homo sapiens, UniProt Q05209); test: PTPN12 in vitro phosphatase assay (malachite green phosphate release); type: biochemical; details: for % Inhibition of PTPN12: at 20 μm concentration
T1 construct: Expression of human truncated PTPN12 (PTP-PEST-N) as a fusion protein; made in house; host or cells: E. coli strain ER2566 (IMPACT vector pTWIN-II)
T1 sequence (Q05209 28-293 limits assumed): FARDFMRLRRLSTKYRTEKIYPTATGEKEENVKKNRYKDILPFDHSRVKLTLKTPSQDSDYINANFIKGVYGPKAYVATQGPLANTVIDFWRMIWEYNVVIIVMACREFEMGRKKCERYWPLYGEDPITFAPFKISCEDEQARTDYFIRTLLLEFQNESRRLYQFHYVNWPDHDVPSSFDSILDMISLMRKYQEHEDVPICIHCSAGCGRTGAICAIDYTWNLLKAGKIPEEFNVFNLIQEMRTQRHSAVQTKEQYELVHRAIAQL
Description: Expression of human truncated PTPN12 (PTP-PEST-N) as a fusion protein required that the cDNA be ligated into the polyclonal site situated in frame and upstream of the intein gene of the IMPACT™ expression vector pTWIN-II. The truncated version was used as it was far easier to handle and gave parallel results to the full length protein in comparison testing. For the purpose of simplicity, PTP-PEST-N will be used interchangeably with PTPN12 in these Examples.
Biochemical analysis is performed on recombinant human PTPN12 fusion protein. […] This activity is considered to be in the high range as compared to other recombinant protein tyrosine phosphatases. PTPN12 preparations were subsequently used extensively in in vitro assays for the initial discovery of compounds having the ability to inhibit PTPN12 activity.
Compounds were tested in the following assay for their ability to inhibit the activity of the desired phosphatase.
The enzyme (phosphatase) activity was determined in a reaction that measured phosphate relase from tyrosine phospho-specific peptides using a method first described by Harder et al., Biochem. J. (1994), Vol. 298, pp. 395-401. This is a non-radioactive method for measuring free phosphate by the malachite green method first described by Van Veldhoven and Mannaerts, Anal Biochem. (1987), Vol.161, pp. 45-48. 10× assay buffer (250 mM Tris:100 mM, β-Mercaptoethanol, 50 mM EDTA; pH 7.2) was diluted to 5× concentration with distilled H2O (dH2O). Then 71.4 μM of substrate working stock solution was prepared in dH2O.
In a Falcon 96 well plate the sample compound was diluted in 1% DMSO (One mL DMSO (Sigma, Cat. # D-8779) dissolved in 99 mL dH2O and stored at room temperature) such that the concentration of the sample compound working stock solution is ten times the final desired concentration of the compound in the assay.
The negative control consisted of 5 μl 1% DMSO and 35 μL substrate working stock solution and 10 μL diluted enzyme, per well), and was placed in the first column of wells on the plate. The last column of wells on the plate was reserved for an enzyme blank, which consisted of 5 μL 1% DMSO, 35 μL substrate working stock solution, and 10 μL 5× assay buffer, per well. Test samples were placed in columns 2-11 and consisted of 5 μL sample in 1% DMSO, 35 μL substrate working stock solution, and 10 μL of diluted enzyme, per well, at the desired concentration. Using the repeater function of a Biohit™ multichannel pipettor, 5 μL of 100 μM sample from the Falcon plate columns was added to corresponding Costar™ assay plate columns.
Using a multichannel pipettor, 35 μL of 71.4 μM ppC-SRC 60 substrate was added to all assay wells, then 10 μL of appropriately diluted enzyme was added to the wells on a column by column basis, pausing 5 seconds between columns. Timing started at the first addition.
The assay plate was incubated at room temperature (21° C.) for 15 minutes. The reaction was “stopped” by adding 100 μL colour reagent on a column by column basis, pausing 5 seconds between columns. Colour was allowed to develop for at least 15 minutes, but no longer than two hours, at room temperature. The plate was “read” on Bio-tek Instruments EL312e™ microplate Bio-Kinetics™ reader at 590 nm and the data collected as per instrument manual.
The blank and negative controls were read, and blanks were subtracted from the average of negative control values and sample values, and the % inhibition was expressed by the following formula: % Inhibition=100−[corrected sample reading/corrected Negative Control reading*100].

various cell lines = test: Cytotoxicity assay (calcein AM cell viability); type: cell-based; details: approximately 24 hours incubation
From the text: This procedure is used to assess the effects compounds have on various cell lines with respect to cell viability. Cell viability is quantified using calcein AM and measuring its conversion to a fluorescent product (calcein) with a fluorimeter.
The principle of this assay is based on the presence of ubiquitous intracellular esterase activity found in live cells. By enzymatic reaction of esterase, non-fluorescent cell-permeant calcein AM is converted to the intensely fluorescent calcein. The polyanionic dye calcein is retained within live cells, producing a green fluorescence in live cells. […]
Cells were collected from tissue culture flasks and trypsinized, centrifuged, resuspended and counted. […]
The calcein AM solution is prepared by added 50 μg of calcein AM crystal (m.w. =994.87 g/mol, Molecular Probes, Eugene, Oreg.) and Anhydrous DMSO (Sigma Aldrich) to make 1 mM stock and diluting stock to 2× the final desired concentration in 1× DPBS just before the assay. […] Fluorescence data was read and recorded (Fluoroskan Ascent® FL fluorimeter (excitation˜485nm, emission˜527nm)).
The values for replicates (usually six) are averaged and % inhibition is calculated as follows: % inhibition=100−[(AVG treatment−AVG positive control)/(AVG negative control−AVG positive control)*100]

caspase-3 = target: T2, caspase-3 (Homo sapiens, UniProt P42574); test: Caspase-3 selectivity assay (Calbiochem kit, colorimetric); type: biochemical
T2 construct: purchased Calbiochem
T2 sequence (P42574 29-175 limits assumed): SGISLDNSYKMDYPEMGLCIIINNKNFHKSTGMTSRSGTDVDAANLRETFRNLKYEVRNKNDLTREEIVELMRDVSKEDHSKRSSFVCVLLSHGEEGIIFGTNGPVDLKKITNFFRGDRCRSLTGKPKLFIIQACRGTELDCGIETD
T2 sequence (P42574 176-277 limits assumed): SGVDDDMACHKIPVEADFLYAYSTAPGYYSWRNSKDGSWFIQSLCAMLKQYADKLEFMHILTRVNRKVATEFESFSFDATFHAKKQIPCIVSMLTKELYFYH
From the text: This is a selectivity assay, which provides information about the specificity of the compounds. A cysteine residue located within the active pocket of the catalytic domain that is conserved between the […] like caspase-3 and the protein tyrosine phosphatases like PTPN12 has a thiol group within this cysteine amino acid that may interact with specific R-groups with inhibiting compounds with in vitro enzyme inhibiting activity. Also, caspase inhibition can prevent apoptosis from occurring in some cases via the caspase cascade. As the potential for cross-inhibitory activity and nonselectivity exists, the caspase-3 assay is performed on PTN12 inhibitors.
The Calbiochem caspase-3 assay kit was utilized according to package insert instructions. The assay is useful for screening for caspase-3 inhibitors measuring the protease activity of caspase-3 and other caspase-3-like activities. Cleavage is monitored calorimetrically by measuring the increase in absorbance at 405 nm. Assays were performed in a 96-well microtiter plate format.

CS(=O)(=O)c1nsc(S(C)(=O)=O)c1C(=O)NC(=O)Nc1ccccc1Cl [1-(3,5-Bis-methanesulfonyl-isothiazole-4-carbonyl)-3-(2-chloro-phenyl)-urea]
% Inhibition of PTPN12 (PTPN12): 63%

CCS(=O)(=O)CCSc1nsc(SCCS(=O)(=O)CC)c1C#N [3,5-Bis-(2-ethanesulfonyl-ethylsulfanyl)-isothiazole-4-carbonitrile]
% Inhibition of PTPN12 (PTPN12): 60%

CSc1nsc(SCc2ccccc2)c1C(N)=O [5-Benzylsulfanyl-3-methylsulfanyl-isothiazole-4-carboxylic acid amide]
cytotoxicity (cell viability, calcein AM) (various cell lines): no cytotoxicity | IC50 (PTPN12; PTPN12, unit inferred): 1500 nM | inhibition at 20 µM (PTPN12; at 20 μM (Table 2)): 94% | % Inhibition of Caspase 3 (caspase-3; at 10 μm): 4 at 10 μm % | % Inhibition of Caspase 3 (caspase-3; at 100 μm): 14 at 100 μm %

N#Cc1c(SCC(=O)Nc2ccc(S(N)(=O)=O)cc2)nsc1SCC(=O)Nc1ccc(S(N)(=O)=O)cc1 [2-{4-Cyano-3-[(4-sulfamoyl-phenylcarbamoyl)-methylsulfanyl]-isothiazol-5-ylsulfanyl}-N-(4-sulfamoyl-phenyl)-acetamide]
% Inhibition of PTPN12 (PTPN12): 73%

CSc1nsc(SC)c1C(=O)N1CCCCC1 [(3,5-Bis-methylsulfanyl-isothiazol-4-yl)-piperidin-1-yl-methanone]
% Inhibition of PTPN12 (PTPN12): 51%
